Reference: patent US11541027B2 (DelMar Pharmaceuticals, Inc., priority 2014, dated 2023)
Entries after “also recorded” stand apart in the source; their conditions may differ.

Columns and labels:
A549 = test: Cytotoxicity in NSCLC tumor models; type: cell-based, human; conditions: A549, p53 wt; N = 3
Source text: (§1) The cell lines include cell lines with wild-type p53, cell lines with mutant p53, and cell lines in which p53 has been knocked out (“null”). The properties of these cell lines are described in F. Bunz et al., “Requirement for p53 and p21 to Sustain G2 Arrest After DNA Damage,” Science 282: 1497-1501 (1998), incorporated herein by this reference.

H1299 = test: Cytotoxicity in NSCLC tumor models; type: cell-based, human; conditions: H1299, p53 null; N = 3
Source text: as §1

H157 = test: Cytotoxicity in NSCLC tumor models; type: cell-based, human; conditions: H157, p53 mu; N = 3
Source text: as §1

H1975 = test: Cytotoxicity in NSCLC tumor models; type: cell-based, human; conditions: H1975, p53 mu; N = 3
Source text: as §1

H2122 = test: Cytotoxicity in NSCLC tumor models; type: cell-based, human; conditions: H2122, p53 mu; N = 3
Source text: as §1

H226 = test: Cytotoxicity in NSCLC tumor models; type: cell-based, human; conditions: H226, p53 wt; N = 3
Source text: as §1

H460 = test: Cytotoxicity in NSCLC tumor models; type: cell-based, human; conditions: H460, p53 wt; N = 3
Source text: as §1

H838 = test: Cytotoxicity in NSCLC tumor models; type: cell-based, human; conditions: H838, p53 wt; N = 3
Source text: as §1

SkLU1 = test: Cytotoxicity in NSCLC tumor models; type: cell-based, human; conditions: SkLU1, p53 mu; N = 3
Source text: as §1

[1] = test system: NSCLC cell lines other than H460; test: Cytotoxicity in NSCLC tumor models, range over the cell lines other than H460; type: cell-based, human; conditions: NSCLC cell lines other than H460, single agents
[2] = test system: A549 (TKI-sensitive) human lung adenocarcinoma xenograft tumors; test: A549 NSCLC xenograft tumor model in female Rag2 mice
Protocol: (§2) Rag2 mice bearing subcutaneous human lung adenocarcinoma xenograft tumors of either TKI-resistant (H1975) or TKI-sensitive (A549) origin were treated.
(§3) Two human NSCLC cell lines, A549 (TKI-sensitive) and H1975 (TKI-resistant), were used as xenograft tumor models in female Rag2 mice. The mice were 6 to 8 weeks of age and weighed 18-23 grams. 10 mice were used per group.
Cisplatin was used in normal saline at a dose of 5 mg/kg. Administration was intravenous.
Administration was intraperitoneal.
Treatment was initiated at a tumor volume of 100 mm^3 to 150 mm^3.
The cells were started from a frozen vial of lab stock that were frozen down from the ATCC original vial and kept in liquid nitrogen. Cell cultures with a passage number of 3 to 10 and a confluence of 80%-90% were used. […] Cells were subcultured once weekly with a split ratio 1:3 to 1:8 and expanded.
For cell preparation and harvesting for subcutaneous (s.c.) inoculation, the cells were rinsed briefly once with Hanks Balanced Salt Solution without calcium or magnesium. […] The cells were allowed to sit at 37° C. for a few minutes. The cells were observed under an inverted microscope until the cell layer was dispersed, fresh medium was added, 50 μL of cell suspension was taken and mixed with trypan blue (1:1), and the cells were counted and cell viability assessed by using Cellometer Auto T4. The cells were centrifuged at 200×g for 7 minutes and the supernatant was aspirated. The cells were resuspended in growth medium to obtain a concentration of 100×10^6 cells/mL. For inoculation, 5×10^6 cells were used in an injection volume of 50 μL per mouse in 1:1 Matrigel.
On day 0, tumor cells were implanted subcutaneously into mice in a volume of 50 μL in Matrigel using a 28-gauge needle; injection of the tumor cells was in the back of the mice. Mice were randomly assigned to groups based on tumor volume.
For administration, 5 mL of 0.9% sodium chloride for injection, USP (saline) was added to yield a DAG solution with a concentration of 8 mg/mL.
Mice were injected with the required volume to administer the prescribed dose (mg/kg) to the animals based on individual mouse weights using a 28-gauge needle. The injection volume was 200 μL for a 20-g mouse. The mice were briefly (less than 30 seconds) restrained during intravenous injections. Dilation of the vein for intravenous injections was achieved by holding the animals under a heat lamp for a period of between 1-2 minutes.
Mice were individually weighed and injected intraperitoneally according to body weight at the specified injection concentration (see Table 1). The injection volume was based on 200 μL per 20-g mouse. The abdominal surface was wiped down with 70% isopropyl alcohol to clean the injection site.
Tumor growth was monitored by measuring tumor dimensions with calipers beginning on the first day of treatment. Tumor length and width measurements were obtained each Monday, Wednesday, and Friday. Tumor volumes were calculated according to the equation L×W^2/2 with the length (in mm) being defined as the longer axis of the tumor. Animals were weighed at the time of tumor measurement. Tumors were allowed to grow to a maximum of 800 mm^3 before termination.
All animals had blood collected by cardiac puncture at termination for CBC (complete blood count) with differentiation.
In particular, signs of ill-health were based on body weight loss, change in appetite, and behavioral signs such as altered gait, lethargy, and gross manifestations of stress.

[3] = test system: H1975 (TKI-resistant) human lung adenocarcinoma xenograft tumors; test: H1975 NSCLC xenograft tumor model in female Rag2 mice
Protocol: as §2, §3
Rag2 mice bearing subcutaneous human lung adenocarcinoma xenograft tumors of either TKI-sensitive (A549) or TKI-resistant (H1975) origin were treated. […] Saline was used as control treatment. Disease progression was evaluated by tumor volume, clinical observations and body weight measurements. Blood samples were analyzed for CBC/differential analyses to assess myelosuppression or other changes in blood chemistry.
Cell number for inoculation was 5×10^6 cells for A549 cells in an injection volume of 50 μL per animal. For H1975 cells, cell number for inoculation was 2×10^6 cells in an injection volume of 50 μL per animal.
Treatment was initiated at average tumor volume of 100-150 mm^3.
Tumor growth delay (TGD) was calculated according to Equation (2): TGD=DTtx−DTcontrol (2).
For these calculations, TV is tumor volume, tx is treatment, int is initial, DT is doubling time for mean tumor volume from 200 mm^3 to 400 mm^3 for A549 or from 300 mm^3 to 600 mm^3 for H1975. MTV is mean tumor volume in mm^3 and TCR is tumor control ratio.
Disease progression was evaluated by tumor volume, clinical observations and body weight measurements.

RIF-1 cell-line = test: Standard syngeneic mouse fibrosarcoma model, tumor growth delay; type: in vivo; conditions: 4 mg/kg, single IP injection, RIF-1 in C3H mice; for Tumor Delay: vs untreated
[4] = cited from earlier work
[5] = 5 mg/kg i.v. Q7D × 3, A549 model
[6] = group 2, 5 mg/kg Q7D×3 i.v., A549 model, days post-inoculation

Row | Compound | IC50 (A549) [µM] | IC50 (H1299) [µM] | IC50 (H157) [µM] | IC50 (H1975) [µM] | IC50 (H2122) [µM] | IC50 (H226) [µM] | IC50 (H460) [µM] | IC50 (H838) [µM] | IC50 (SkLU1) [µM] | IC50 [1] [nM] | also measured
1 | O=C1[O][Pt]2([NH][C@@H]3CCCC[C@H]3[NH]2)[O]C1=O [Oxaliplatin, oxaliplatin] | 0.57 | 0.64 | 2.04 | 0.51 | 1.42 | 0.82 | 0.36 | 2.63 | 2.02 | 600 to 2600 | 
2 | N.N.[Cl][Pt][Cl] [Cisplatin, cisplatin, reference compound] | 0.74 | 1.2 | 2.16 | 0.45 | 1.07 | 1.82 | 0.45 | 1.18 | 0.89 | 500 to 2200 | MTV at Day 68 [2, 5]: 460 mm^3; Median survival [2, 5]: 72 days; TCR at Day 68 ([2]; 5 mg/kg i.v. Q7D × 3, A549 model, tumor control ratio): 0.72; TGD ([2]; 5 mg/kg i.v. Q7D × 3, A549 model, tumor growth delay vs untreated control, doubling time 200 to 400 mm^3): 4 days; TGI (%) ([2]; 5 mg/kg i.v. Q7D × 3, A549 model, tumor growth inhibition): 29%; body weight / tolerability of the dosage ([2]; 5 mg/kg i.v. Q7D × 3, A549 tumor-bearing Rag2 mice): body weight loss was observed; also recorded: near the MTD; number of animals remaining on study on day 70 ([2]; group 2, 5 mg/kg Q7D×3 i.v., A549 model): 6/10; day on which a mean tumor volume of 200 mm^3 was observed [2, 6]: 49 days; day on which a mean tumor volume of 400 mm^3 was reached [2, 6]: 66 days; doubling time ([2]; group 2, 5 mg/kg Q7D×3 i.v., A549 model, mean tumor volume 200 to 400 mm^3): 17; MTV at Day 31 ([3]; 5 mg/kg i.v. Q7D × 3): 381 mm^3; Median survival ([3]; 5 mg/kg i.v. Q7D × 3): 31 days; body weight ([3]; 5 mg/kg i.v. Q7D × 3 (group 2)): Body weight loss was observed; TCR at Day 31 ([3]; 5 mg/kg i.v. Q7D × 3, tumor control ratio): 0.83; Days to 4 × Median Tumor Size (RIF-1 cell-line): 7.75 days; Tumor Delay (RIF-1 cell-line): 1.45 days; Tumor Delay (RIF-1 cell-line; listed as cisplatin): 1.5 days
3 | O[C@H]([C@H](O)[C@@H](O)CBr)[C@H](O)CBr [dibromodulcitol] |  |  |  |  |  |  |  |  |  |  | absorption by the oral route [4]: rapid and fairly complete
